Assay in all cases: NCI anticancer screen, dose series, 48 h
Test [1] has as its system A549.
Test [2] deals with ACHN.
In test [3] the test system is CCRF-CEM.
In test [4] the test system is EKVX.
Test [5] concerns HOP-92.
For test [6], the system named is KM12.
Test [7] deals with LOX IMVI.
The subject of test [8] is MDA-N.
Test [9] deals with MOLT-4.
In test [10] the test system is OVCAR-3.
For test [11], the system named is OVCAR-4.
In test [12] the test system is OVCAR-5.
The subject of test [13] is OVCAR-8.
Test [14] relates to PC-3.
In test [15] the test system is SK-MEL-28.
Test [16] deals with SN12C.
Test [17] has as its system SR.
Test [18] deals with SW-620.
In test [19] the test system is T47D.
Test [20] deals with UACC-62.

The structures appear in SMILES notation.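 Growth conditions: 96-well plates. Treatment: test compound, 48 hours, 5 concentrations. Analysis: linear interpolation between bracketing concentrations; unreached endpoints set to highest concentration. Abbreviation: GI50, concentration required for 50% inhibition of growth.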 The source made the active and inactive calls. No stated cut-off is given here; in the data, active = GI50 up to about 1.1 µM and inactive = higher.

Consider `CC(=O)N1CCn2c1nc1cc(Cl)ccc12`, for which the GI50 in test [1] was > 100 µM (inactive); in [2], 34.4 µM (inactive); in [3] it was > 100 µM (inactive); in test [4], 54.3 µM (inactive); in test [5], 24.9 µM (inactive); in test [6], > 100 µM (inactive). In addition, the GI50 in [7] was 39.2 µM (inactive); in test [8], > 100 µM (inactive); in test [9] it was > 100 µM (inactive); in test [10] it was 95.1 µM (inactive); in [11], > 100 µM (inactive); in test [12], > 100 µM (inactive). The GI50 in test [13] was 74.3 µM (inactive); in test [14], 47.5 µM (inactive); in test [15], > 100 µM (inactive); in test [16] it was > 100 µM (inactive); in test [17], > 100 µM (inactive); in test [18], > 100 µM (inactive). Further, the GI50 in [19] is 21.4 µM (inactive); in [20] it was 33.5 µM (inactive).

Regarding `Nc1c(S(=O)(=O)O)cc(Nc2cccc(S(N)(=O)=O)c2)c2c1C(=O)c1ccccc1C2=O`, the GI50 in [1] is > 100 µM (inactive); in test [2], > 100 µM (inactive); in test [3], > 100 µM (inactive); in test [4], 57 µM (inactive); in test [5], > 100 µM (inactive); in [6], 71.6 µM (inactive). In addition, the GI50 in test [7] is 43.8 µM (inactive); in [8], 20.3 µM (inactive); in test [9], > 100 µM (inactive); in [10] it was 83.9 µM (inactive); in test [11] it was > 100 µM (inactive); in [12] it was > 100 µM (inactive). The GI50 was > 100 µM (inactive) in test [13]; > 100 µM (inactive) in test [14]; > 100 µM (inactive) in [15]; > 100 µM (inactive) in test [16]; > 100 µM (inactive) in test [17]; 74.5 µM (inactive) in test [18]. For the same compound, the GI50 in test [19] was > 100 µM (inactive); in test [20], 24.2 µM (inactive).

As for `CN(Cc1cnc2nc(N)nc(N)c2n1)c1ccc(C(=O)NCCCC(=O)O)cc1`, the GI50 in [1] is 5.83 µM (inactive); in [2], 6.78 µM (inactive); in test [3], 17.3 µM (inactive); in [4], > 29 µM (inactive); in [5], > 100 µM (inactive); in [6] it was 8.38 µM (inactive). The GI50 in test [7] was 4 µM (inactive); in test [8], 7.57 µM (inactive); in [9], 6.53 µM (inactive); in test [10], > 93.5 µM (inactive); in [11] it was > 100 µM (inactive); in test [12], > 100 µM (inactive). Further, the GI50 in test [13] is 7.55 µM (inactive); in test [14] it was 0.773 µM (active); in [15], > 100 µM (inactive); in test [16], > 100 µM (inactive); in [17], 4.99 µM (inactive); in test [18], 5.7 µM (inactive). Besides, the figures for the GI50 in test [19] and in test [20] were > 100 µM (inactive) and 12.6 µM (inactive), respectively.

Regarding `c1ccc2c(c1)cc1c3[nH]c4ccccc4c3ccn21`, the GI50 was > 10 µM (inactive) in test [1]; > 10 µM (inactive) in [2]; 8.32 µM (inactive) in [3]; > 10 µM (inactive) in test [4]; > 10 µM (inactive) in test [5]; > 10 µM (inactive) in [6]. The GI50 in test [7], in test [8], in test [9], in [10], in test [11] and in test [12] was > 10 µM (inactive) each time. Also, the GI50 in test [13] was > 10 µM (inactive); in [14], > 10 µM (inactive); in test [15], > 10 µM (inactive); in test [16] it was > 10 µM (inactive); in test [17], > 10 µM (inactive); in test [18], 6.78 µM (inactive). In addition, the GI50 in [19] and in test [20] was > 10 µM (inactive) throughout.

Regarding `C[N+](C)(C)c1nc(N)nc2c1ncn2C1OC(CO)C(O)C1O` (stereo not given), the GI50 is > 100 µM (inactive) in test [1]; > 100 µM (inactive) in [2]; 3.08 µM (inactive) in test [3]; > 100 µM (inactive) in [4]; > 100 µM (inactive) in test [5]; > 100 µM (inactive) in test [6]. In addition, the GI50 in [7], in test [8], in test [9], in test [10], in [11] and in test [12] was > 100 µM (inactive) throughout. Moreover, the GI50 in test [13], in [14], in test [15], in test [16], in test [17] and in test [18] was > 100 µM (inactive) throughout. For the same compound, the GI50 in test [19] and in [20] was > 100 µM (inactive) in each case.

For `CC(C)(O)CO/N=C1\C(=C2\C(=O)Nc3ccccc32)Nc2ccccc21`, the GI50 was 0.724 µM (active) in test [1]; 0.426 µM (active) in test [2]; 0.435 µM (active) in test [3]; 1.65 µM (inactive) in test [4]; 3.48 µM (inactive) in test [5]; < 0.01 µM (active) in test [6]. The GI50 was 0.583 µM (active) in [7]; 12.2 µM (inactive) in [8]; 0.944 µM (active) in [9]; 1.32 µM (inactive) in [10]; 2.94 µM (inactive) in test [11]; 2.61 µM (inactive) in test [12]. Besides, the GI50 is 1.15 µM (inactive) in [13]; 0.883 µM (active) in test [14]; 2.38 µM (inactive) in [15]; 12 µM (inactive) in [16]; 0.594 µM (active) in [17]; 0.811 µM (active) in test [18]. Moreover, the GI50 in test [19] was 0.631 µM (active); in [20] it was 0.728 µM (active).

Turning to `Cc1c(O)c(OC2OC(CO)C(O)C(O)C2O)cc2c1C=C[C@@H]1[C@@]2(C)C(=O)C[C@]2(C)[C@@H]([C@@](C)(O)C(O)/C=C/C(C)(C)O)[C@H](O)C[C@@]12C` (stereo not given in full), the GI50 in [1], in test [2], in test [3], in [4], in [5] and in test [6] was > 100 µM (inactive) each time. Also, the GI50 in test [7], in [8], in test [9], in test [10], in test [11] and in test [12] was > 100 µM (inactive) in each case. Besides, the GI50 in [13], in test [14], in test [15], in test [16], in [17] and in test [18] was > 100 µM (inactive) in each case. The GI50 in [19] and in test [20] was > 100 µM (inactive) throughout.
